Several values for one entry are separate records, joined by “and”; a condition that tells them apart may be missing. Equal values may be shown once. Read-outs that look alike come from different tables or passages of the source.
Key:
[1] = tested on: Kunming mice
Procedure: Sixteen Kunming mice were randomly divided into four groups (equal number of males and females): normal control group and low-, middle-, and high-dose [^188Re]Re-IBA groups. The control group was injected with 0.9% NaCl, and the experimental groups were injected with [^188Re]Re-IBA solution of 3.7 MBq, 18.5 MBq, and 37 MBq, respectively. The body weight and general condition of the mice in each group were measured. After 4 weeks, the blood of the mice in each group was drawn for routine blood examination and liver and kidney function. A pathological examination of important tissue and organs was performed.
SPSS 26.0 was used for statistical analysis, and the quantitative data were expressed as mean ± standard deviation ( χ¯ ± s). In the toxicity test, repeated-measures analysis of variance was used to compare the body weight of mice in each group. P < 0.05 was considered statistically significant.

[2] = 37°C
Procedure: The RCP of [^188Re]Re-IBA was determined by PC. Acetone and 0.9% NaCl were used as the eluents. A TLC scanner was used to measure the distribution of radioactivity on the PC strips. The RCP of [^188Re]Re-IBA was calculated from the peak area measurements as follows: […]
Freshly prepared [^188Re]Re-IBA was incubated in 0.9% NaCl and fresh human serum at 37°C. The RCP of the tubes was determined by PC at 1 h, 3 h, 6 h, 12 h, and 24 h. The experiment was repeated thrice. The results are expressed as mean ± standard deviation ( χ¯ ± s).

[3] = Bone imaging of New Zealand rabbits (SPECT); conditions: New Zealand rabbit, 100 MBq
Procedure: The New Zealand rabbit was anesthetized by intraperitoneal injection of 2% pentobarbital sodium (40 mg/kg). Then, 100 MBq [^188Re]Re-IBA was injected. Bone imaging was performed at different time points (acquisition equipment: American GE Infinia T4 double probe single-photon emission computed tomography, high energy collimator; scanning parameters: energy peak: 155 keV, posture: supine position, matrix: 128 × 128, and window width: ±10%). Following image acquisition, the images were processed by using the software of the postprocessing workstation.

Question: For `CCCCCN(C)CCC1(O)P(=O)(O)[O][188Re]2([OH])([OH])([O]P1(=O)O)[O]P(=O)(O)C(O)(CCN(C)CCCCC)P(=O)(O)[O]2` (stereo not drawn) [[^188Re]Re-IBA], which “Pathology of important tissues and organs vs normal control” value ([1]; 3.7, 18.5, 37 MBq, 4 weeks) is on record?
Answer: no abnormal pathological changes

Question: What about the “Routine blood and liver and kidney function examination (mean values)” value ([1]; 3.7, 18.5, 37 MBq, 4 weeks) of the same molecule?
Answer: within the normal reference range

Question: What about the Adverse reactions ([1]; 3.7, 18.5, 37 MBq, within 4 weeks) of the same molecule?
Answer: no adverse reactions

Question: And the “Body weight vs other groups” value ([1]; high-dose group 37 MBq, 4 weeks)?
Answer: inhibited the weight gain of mice to a certain extent

Question: And the “Body weight vs control group” value ([1]; low-dose group 3.7 MBq, 4 weeks)?
Answer: no significant difference in weight

Question: And the “Body weight vs control group” value ([1]; medium-dose group 18.5 MBq, 4 weeks)?
Answer: no significant difference in weight

Question: What about the “RCP, in vitro stability” value ([2]; 0.9% NaCl, 1 h) of the same molecule?
Answer: 98.14 ± 0.2%

Question: What about the “RCP, in vitro stability” value ([2]; 0.9% NaCl, 3 h) of the same molecule?
Answer: 97.82 ± 0.6%

Question: What about the “RCP, in vitro stability” value ([2]; 0.9% NaCl, 6 h) of the same molecule?
Answer: 96.99 ± 1.3%

Question: And the “RCP, in vitro stability” value ([2]; 0.9% NaCl, 12 h)?
Answer: 95.33 ± 1.1%

Question: And the “RCP, in vitro stability” value ([2]; 0.9% NaCl, 24 h)?
Answer: 91.44% and 91.44 ± 0.8%

Question: What about the “RCP, in vitro stability” value ([2]; human serum, 1 h) of the same molecule?
Answer: 99.01 ± 0.5%

Question: What about the “RCP, in vitro stability” value ([2]; human serum, 3 h) of the same molecule?
Answer: 98.67 ± 0.9%

Question: And the “RCP, in vitro stability” value ([2]; human serum, 6 h)?
Answer: 98.15 ± 0.8%

Question: And the “RCP, in vitro stability” value ([2]; human serum, 12 h)?
Answer: 96.90 ± 1.4%

Question: And the “RCP, in vitro stability” value ([2]; human serum, 24 h)?
Answer: 93.06% and 93.06 ± 1.6%

Question: And the “Elimination route of most of the activity” value [3]?
Answer: through the kidneys

Question: And the “Bone imaging, tracer distribution” value ([3]; 20 min after the injection)?
Answer: obvious accumulation in bones and mild tracer uptake in soft tissue
